According to patent publication US20180243421A1, “IMMUNOSTIMULATING AGENT” (AJINOMOTO CO., INC., priority 2015, published 2018):

Assays:
[1] = system: anti-OVA-specific IgG1 subclass antibody; experiment: Adjuvant activity: anti-OVA-specific IgG1 subclass antibody in serum after secondary immunization (Examples 1, 5, 7, 8; ELISA absorbance); assay type: in vivo, BALB/c mice; details: Example 7
Protocol: (§1) Two weeks from the secondary immunization, the whole blood was extracted under anesthesia, and the obtained serum sample was measured for anti-OVA-specific IgG1 subclass antibody.
A method for measurement of the anti-OVA-specific IgG1 subclass antibody in Example 1, and the following Examples 5, 7 and 8 is as follows.
Measurement Method of anti-OVA-specific IgG1 Subclass Antibody
(§2) To a 96 well plate was added 5 μg/ml OVA at 100 μl/well, and the mixture was incubated at 4° C. overnight. After incubation, the mixture was washed three times with 200 μl of PBS-T (PBS+0.05%(v/v) Tween 20) per well, and blocked with 100 μl of 5% FCS/PBS solution per well at room temperature for 1 to 2 hr. Thereafter, the mixture was washed three times with PBS-T (200 μl/well), a diluted serum sample (100 μl/well) or the same amount of 5% FCS/PBS solution as a control was added, and the mixture was incubated at 37° C. for 1 hr. Thereafter, the mixture was washed five times with PBS-T (200 μl/well), a diluted biotinylated anti-mouse IgG1 antibody (100 μl/well) was added, and the mixture was incubated at 37° C. for 45 min. Thereafter, the mixture was washed five times with PBS-T (200 μl/well), a diluted anti-biotin-HRP antibody was added (100 μl/well), and the mixture was incubated at 37° C. for another 30 min. Thereafter, the mixture was washed five times with PBS-T (200 μl/well), TMB substrate solution was added (100 μl/well), and the mixture was incubated at room temperature for 10 to 15 min. Thereafter, a reaction quenching liquid (2N sulfuric acid solution) was added (50 μl/well) to discontinue a color developing reaction, and the absorbance (OD Value=450 nm) was measured by a microplate reader.

[2] = system: anti-OVA-specific IgE antibody; details: mouse, in vivo
Protocol: The serum sample obtained in Example 1 was measured for an anti-OVA-specific IgE antibody. The measurement method of the anti-OVA-specific IgE antibody in Example 3 and Examples 6, 9 is as follows.
Measurement Method of anti-OVA-specific IgE Antibody
DS mouse IgE ELISA (OVA) kit manufactured by DS Pharma Biomedical Co., Ltd. was used. The protocol is briefly shown below.
The serum sample and a standard reagent for drawing an analytical curve are diluted with a buffer and, after stirring, left standing at room temperature for 10 min. The sample and the standard solution are added to a plate bound with an IgE capture antibody in advance and, after stirring, the mixture is left standing at room temperature for 60 min. The mixture is washed three times with wash, HRP-labeled OVA is added, and the mixture is left standing at room temperature for 30 min. The mixture is washed three times with wash, a substrate solution is added, and the mixture is left standing in dark at room temperature for 30 min. A reaction quenching liquid is added, the mixture is stirred, and the absorbance (OD Value=450 nm) is immediately measured.
This test was performed in the same manner as in Example 3 except that N^2-hexadecanoyl-L-arginine (SZ61), N-hexadecanoylagmatine (SZ62), N^2-hexadecanoyl-L-arginine methyl ester hydrochloride (SZ63), N^2-octadecanoyl-L-glutamine tert-butyl ester (SZ64), and N^2-octadecanoyl-L-glutamine (SZ65) were used.
This test was performed in the same manner as in Example 6 except that N-hexadecanoylagmatine (SZ62), N^2-octadecanoyl-L-glutamine tert-butyl ester (SZ64), N-docosanoyl-L-leucine methyl ester (SZ70), and N-docosanoyl-L-phenylalanine methyl ester (SZ71) were used and a positive control adjuvant Addavax™ (InvivoGen) administration group was formed.
The allergy inducing activity test was performed in the same manner as in Example 3 except that Addavax™, N-(2-octadecyleicosanoyl)-L-leucine methyl ester (SZ86), N-hexadecanoyl-L-leucinamide (SZ90), N^2-hexadecanoyl-N^1,N^1-diethyl-L-leucinamide (SZ92), N^2-hexadecanoyl-L-arginine hexyl ester hydrochloride (SZ99) and N^2-docosanoyl-N^1,N^1-diethyl-L-glutamic acid 1-amide (SZ106) were used.
The allergy inducing activity test was performed in the same manner as in Example 3 except that Addavax™, N-(2-octadecyleicosanoyl)-L-leucine methyl ester (SZ86), N-hexadecanoyl-L-leucinamide (SZ90), N^2-hexadecanoyl-N^1,N^1-diethyl-L-leucinamide (SZ92), N-hexadecanoyl-L-leucine hexyl ester (SZ97), N^2-docosanoyl-N^1,N^1-diethyl-L-glutamic acid 1-amide (SZ106) and N-docosanoylagmatine hydrochloride (SZ108) were used.
8-Week-old female BALB/c mice were divided into groups (N=6), and each group was primarily immunized by dorsal-subcutaneous administration of (1) ovalbumin (OVA) (5 μg) dissolved in saline as an antigen (OVA single administration group), (2) OVA (10 μg) and aluminum hydroxide salt dissolved in saline (Alum administration group), (3) OVA 10 μg and Addavax™ (mixed with saline at 1:1) dissolved in saline (Addavax™ administration group), (4) OVA 10 μg and CpG 5 μg dissolved in saline (CpG administration group), (5) OVA 10 μg and MPL 5 μg dissolved in saline (MPL administration group), (6) OVA (5 μg) and SZ62 (0.256 μmol) dissolved or dispersed in 5% αCD-added saline (SZ62 administration group), (7) OVA (5 μg), SZ62 (0.256 μmol) and CpG 5 μg dissolved or dispersed in 5% αCD-added saline (SZ62+CpG administration group), (8) OVA 10 μg, Addavax™ (mixed with saline at 1:1) and CpG 5 μg dissolved in saline (Addavax™+CpG administration group), (9) OVA (5 μg), SZ62 (0.256 μmol) and MPL 5 μg dissolved or dispersed in 5% αCD-added saline (SZ62+MPL administration group), (10) OVA (10 μg), aluminum hydroxide salt (Alum) and MPL 5 μg dissolved in saline (Alum+MPL administration group), each per mouse. One week later, the secondary immunization was carried out by dorsal-subcutaneous administration of solutions or dispersions similar to those of the above-mentioned (1) to (10) again.

IFN-γ = experiment: Th1 response: IFN-γ production from lymph node cells of immunized mice restimulated with OVA; assay type: in vivo, BALB/c mice; details: Example 10; s.c. OVA 10 μg + 0.256 μmol in 5% αCD saline (Addavax 1:1); groin lymph node ten days later; 0.1-100 μg OVA, 40 hr, ELISA
Protocol: (§3) Ten days later, groin lymph node was collected from all mice of the above-mentioned (1) to (4), lymph node cells were isolated and cultured in 10% FBS-containing RPMI1640 medium. Thereto was added 0.1 μg, 1 μg, 10 μg, 100 μg of OVA, respectively, 40 hr later, cell supernatant was recovered, and IFN-γ and IL-4 in the supernatant were measured by ELISA.

IL-4 = experiment: Th2 response: IL-4 production from lymph node cells of immunized mice restimulated with OVA; assay type: in vivo, BALB/c mice; details: Example 10; s.c. OVA 10 μg + 0.256 μmol in 5% αCD saline (Addavax 1:1); groin lymph node ten days later; 0.1-100 μg OVA, 40 hr, ELISA
Protocol: as §3

[3] = system: anti-OVA-specific IgG1 subclass antibody; experiment: Adjuvant activity: anti-OVA-specific IgG1 subclass antibody in serum after secondary immunization (Examples 12, 19, 20, 21); assay type: in vivo, BALB/c mice; details: Example 21; s.c.; SZ62 0.256 μmol in 5% αCD saline, CpG 5 μg, MPL 5 μg, Addavax 1:1, Alum; two weeks from secondary immunization
[4] = system: anti-OVA-specific IgG2a subclass antibody; experiment: Adjuvant activity: anti-OVA-specific IgG2a subclass antibody in serum after secondary immunization; assay type: in vivo, BALB/c mice; details: Example 21; s.c.; SZ62 0.256 μmol in 5% αCD saline, CpG 5 μg, MPL 5 μg, Addavax 1:1, Alum; two weeks from secondary immunization
Protocol: as §1
Measurement Method of anti-OVA-specific IgG2a Subclass Antibody
as §2, with “IgG2a” for “IgG1”, “10-15” for “10 to 15”
Measurement Method of Concentration of anti-OVA-specific IgG1 Subclass Antibody and anti-OVA-specific IgG2a Subclass Antibody
To a 96 well plate was added 5 μg/ml OVA at 100 μl/well, and the mixture was incubated at 4° C. overnight. After incubation, the mixture was washed three times with 200 μl of PBS-T (PBS+0.05% (v/v) Tween 20) per well, and blocked with 100 μl of 5% FCS/PBS solution per well at room temperature for 1 to for 2 hr. […] When an anti-OVA-specific IgG2a subclass antibody was measured, the standard of an anti-OVA-specific IgG2a subclass antibody was added at 50 ng/ml, 25 ng/ml, 12,5 ng/ml, 6.25 ng/ml, 3.125 ng/ml, 1.56 ng/ml, 0.781 ng/ml, 0.391 ng/ml, 0.195 ng/ml, 0.098 ng/ml, 0.049 ng/ml, 0 ng/ml, per 1 well. […] Thereafter, a reaction quenching liquid (2N sulfuric acid solution) was added (50 μl/well) to discontinue a color developing reaction, and the absorbance (OD Value=450 nm) was measured by a microplate reader. A standard curve was drawn from the measured OD values, and the concentration was calculated.

Molecule	adjuvant activity (IgG1) compared with Alum [1]	anti-OVA-specific IgG1 subclass antibody production as compared to the OVA single administration group ([1]; same manner as Example 1, plus Addavax group)	allergy inducing activity as compared to aluminum hydroxide gel adjuvant and Addavax [2]	IFN-γ production from lymph node cells (IFN-γ)	IL-4 production from lymph node cells (IL-4)	anti-OVA-specific IgG1 subclass antibody production as compared to the OVA single administration group [3]	anti-OVA-specific IgG2a subclass antibody production as compared to the OVA single administration group [4]
CCCCCCCCCCCCCCCCCCCCCC(=O)N[C@@H](CC(C)C)C(=O)OC [SZ70, N-docosanoyl-L-leucine methyl ester]	equivalent to or not less than that of Alum	significantly increased	lower allergy inducing activity	increased in an OVA volume dependent manner	did not show an increase	–	–
monophosphoryl lipid [MPL, reference compound]	–	–	–	–	–	significantly increased	tended to increase
